Results from patent US9656981B2, “Peripherally-acting cannabinoid receptor agonists for chronic pain” (The Regents of the University of California, priority 2012, dated 2017).
Read-outs that look alike come from different tables or passages of the source.

Legend:
CB1R = CB1R (Homo sapiens, UniProt P21554); assay: CB1R radioligand displacement binding assay (CP55940 radioligand)
Experimental: Heterologous competition binding assays were performed to calculate receptor affinities. Unlabeled SR141716 or SR144528 were used as appropriate controls for non-specific binding (NSB) in the assay. Calculation of the equilibrium dissociation constant (Ki) was performed using the Cheng-Prusoff equation.

CB2R = CB2R (Homo sapiens, UniProt P34972); assay: CB2R radioligand displacement binding assay (CP55940 radioligand)
Sequence of CB2R (P34972 whole entry): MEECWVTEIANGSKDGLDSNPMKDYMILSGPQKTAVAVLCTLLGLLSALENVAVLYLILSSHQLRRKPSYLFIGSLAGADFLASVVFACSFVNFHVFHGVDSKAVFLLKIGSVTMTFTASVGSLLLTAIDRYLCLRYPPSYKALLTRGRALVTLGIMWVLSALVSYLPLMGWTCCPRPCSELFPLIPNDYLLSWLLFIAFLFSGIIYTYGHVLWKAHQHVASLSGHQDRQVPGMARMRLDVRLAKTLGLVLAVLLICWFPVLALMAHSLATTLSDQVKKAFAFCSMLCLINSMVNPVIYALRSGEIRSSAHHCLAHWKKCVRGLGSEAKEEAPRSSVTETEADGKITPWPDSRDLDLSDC
Experimental: Detailed radioligand displacement assays (using the well-characterized CBR agonist […] as the radioligand) were conducted to determine the affinity (Ki) of the test compounds for CB1R and CB2R as has been previously described by our group^112,113. Heterologous competition binding assays were performed to calculate receptor affinities. Unlabeled SR141716 or SR144528 were used as appropriate controls for non-specific binding (NSB) in the assay. Calculation of the equilibrium dissociation constant (Ki) was performed using the Cheng-Prusoff equation.

[1] = Table 1, CP55940 radioligand, read-out: CB1_KI_CP

Sequence of CB1R (P21554 whole entry): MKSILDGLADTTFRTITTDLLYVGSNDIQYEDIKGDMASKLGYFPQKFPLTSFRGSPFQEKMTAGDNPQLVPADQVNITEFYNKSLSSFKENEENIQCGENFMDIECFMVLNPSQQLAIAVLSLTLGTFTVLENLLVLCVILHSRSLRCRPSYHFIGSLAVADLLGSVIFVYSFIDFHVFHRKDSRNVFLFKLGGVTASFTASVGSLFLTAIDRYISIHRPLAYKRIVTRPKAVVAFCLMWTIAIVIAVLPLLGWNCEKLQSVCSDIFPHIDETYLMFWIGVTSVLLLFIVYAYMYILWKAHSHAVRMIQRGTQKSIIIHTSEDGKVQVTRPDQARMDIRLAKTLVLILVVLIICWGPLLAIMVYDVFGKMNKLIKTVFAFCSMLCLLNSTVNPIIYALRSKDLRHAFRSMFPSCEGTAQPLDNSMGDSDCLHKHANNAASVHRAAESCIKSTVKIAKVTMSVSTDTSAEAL

| Compound | Ki (CB1R; [1]) [nM] | Ki (CB2R) [nM] | further results |
| --- | --- | --- | --- |
| CCCCCn1cc(C(=O)c2cccc3ccccc23)c2ccccc21 [Compound 1, 3-(naphthalene-1-carbonyl)-1-pentyl-1H-indole, reference compound] | 4.31 | 7.38 | – |
| C1=C(CCN2CCOCC2)c2ccccc2/C1=C/c1ccc2c3c(cccc13)CC2 [Compound 12, 4-{2-[(1E)-1-(1,2-dihydroacenaphth-ylen-5-ylmethylidene)-1H-inden-3-yl]ethyl} morpholine] | – | – | Ki (CB1R; read-out: CB1R binding affinity (Ki)): 15.9 nM; Ki (CB2R; Table 1, CP55940 radioligand, read-out: CB2_KI_CP): 4.22 nM |
| C1=C(CCN2CCOCC2)c2ccccc2/C1=C/c1cccc2ccc3ccccc3c12 [Compound 13, 4-{2-[(1E)-1-(phenanthren-4-ylmethylidene)-1H-inden-3-yl]ethyl} morpholine] | 22.9 | 6 | – |
| C1=C(CCN2CCOCC2)c2ccccc2/C1=C/c1ccnc2ccccc12 [Compound 14, 4-{[(1E)-3-[2-(morpholin-4-yl)ethyl]-1H-inden-1-ylidene]methyl} quinoline] | 23.3 | 12.1 | Ki (CB1R): 23 nM |
| CC1=C(CCN2CCOCC2)c2ccccc2/C1=C/c1cccc2ccccc12 [Compound 15, 4-{2-[(1E)-2-methyl-1-(naphthalen-1-ylmethylidene)-1H-inden-3-yl]ethyl} morpholine] | – | 2.84 | – |
| C1=C(CCN2CCOCC2)c2ccccc2/C1=C/c1ccccc1-c1ccccc1 [Compound 16, 4-{2-[(1E)-1-[(2-phenylphenyl)methylidene]-1H-inden-3-yl]ethyl} morpholine] | 82.9 | 15.3 | – |
| C1=C(CCN2CCOCC2)c2ccccc2/C1=C/c1cccc2cc[nH]c12 [Compound 17, 7-{[(1E)-3-[2-(morpholin-4-yl)ethyl]-1H-inden-1-ylidene]methyl}-1H-indole] | 107 | 8.7 | – |
| COc1ccccc1/C=C1\C=C(CCN2CCOCC2)c2ccccc21 [Compound 18, 4-{2-[(1E)-1-[(2-methoxyphenyl)meth-ylidene]-1H-inden-3-yl]ethyl} morpholine] | 149 | 29.8 | – |
| CCCCCC1=C/C(=C\c2cccc3ccccc23)c2ccccc21 [Compound 19, 1-{[(1E)-3-pentyl-1H-inden-1-ylidene]methyl} naphthalene, reference compound] | 17.2 | 163 | – |
| C1=C(CCN2CCOCC2)c2ccccc2/C1=C/c1ccc2ccccc2c1 [Compound 20, 4-{2-[(1E)-1-(naphthalen-2-ylmethylidene)-1H-inden-3-yl]ethyl} morpholine] | 134 | 24.4 | – |
| CCCCCCC1=C/C(=C\c2cccc3ccccc23)c2ccccc21 [Compound 21, 1-{[(1E)-3-hexyl-1H-inden-1-ylidene]methyl} naphthalene] | – | 1450 | – |
| C1=C(CCN2CCOCC2)c2ccccc2/C1=C/c1cccc2cnccc12 [Compound 22, 5-{[(1E)-3-[2-(morpholin-4-yl)ethyl]-1H-inden-1-ylidene]methyl} isoquinoline] | 454 | 51.4 | – |
| Ic1ccccc1/C=C1\C=C(CCN2CCOCC2)c2ccccc21 [Compound 23, 4-{2-[(1E)-1-[(2-iodophenyl)methyl-idene]-1H-inden-3-yl]ethyl} morpholine] | 607 | 109 | – |
| Cc1ccccc1/C=C1\C=C(CCN2CCOCC2)c2ccccc21 [Compound 24, 4-{2-[(1E)-1-[(2-methylphenyl)methylidene]-1H-inden-3-yl]ethyl} morpholine] | 623 | 95.4 | – |
| Brc1ccccc1/C=C1\C=C(CCN2CCOCC2)c2ccccc21 [Compound 25, 4-{2-[(1E)-1-[(2-bromophenyl)methylidene]-1H-inden-3-yl]ethyl} morpholine] | 647 | 206 | – |
| Clc1ccccc1/C=C1\C=C(CCN2CCOCC2)c2ccccc21 [Compound 26, 4-{2-[(1E)-1-[(2-chlorophenyl)methylidene]-1H-inden-3-yl]ethyl} morpholine] | 862 | – | – |
| Fc1ccccc1/C=C1\C=C(CCN2CCOCC2)c2ccccc21 [Compound 28, 4-{2-[(1E)-1-[(2-fluorophenyl)methylidene]-1H-inden-3-yl]ethyl} morpholine] | 1000 | 429 | – |
| C1=C(CCN2CCOCC2)c2ccccc2/C1=C/c1ccccc1 [Compound 29, 4-{2-[(1E)-1-(phenyl-methylidene)-1H-inden-3-yl]ethyl} morpholine] | 1300 | 295 | – |

| Compound | Ki (CB1R; [1]) [nM] | Ki (CB2R) [nM] | further results |
| --- | --- | --- | --- |
| C1=C(CCN2CCOCC2)c2ccccc2/C1=C/c1cccs1 [Compound 30, 4-{2-[(1E)-1-(thiophen-2-ylmethylidene)-1H-indene-3-yl]ethyl} morpholine] | 8530 | 3020 | – |
| C1=C(CCN2CCOCC2)c2ccccc2/C1=C/c1ccco1 [Compound 31, 4-{2-[(1E)-1-(furan-2-ylmethylidene)-1H-inden-3-yl]ethyl} morpholine] | – | 1260 | – |
| C[N+]1(CCC2=C/C(=C\c3cccc4ccccc34)c3ccccc32)CCOCC1 [Compound 35, 4-methyl-4-{2-[(1E)-1-(naphthalen-1-ylmethylidene)-1H-inden-3-yl]ethyl} morpholin-4-ium iodide] | 982 | – | – |
| CC1=C(CC[N+]2(C)CCOCC2)c2ccccc2/C1=C/c1cccc2ccccc12 [Compound 36, 4-methyl-4-{2-[(1E)-2-methyl-1-(naphthalen-1-ylmethylidene)-1H-inden-3-yl]ethyl} morpholin-4-ium iodide] | 1610 | – | – |
| C1=C(CCN2CCOCC2)c2ccccc2/C1=C/c1cccc(-c2ccccc2)c1 [Compound 37, 4-{2-[(1E)-1-[(3-phenylphenyl)methylidene]-1H-inden-3-yl]ethyl} morpholine] | 2600 | 132 | – |
| CCCCCCC1=C/C(=C\Cc2ccccc2)c2ccccc21 [Compound 38, (1E)-3-hexyl-1-(2-phenyl-ethylidene)-1H-indene] | – | 13700 | Ki (CB1R): 4410 nM |
| O=C(c1cccc2ccccc12)c1cn(CCN2CCOCC2)c2ccccc12 [Compound 39, 1-[2-(morpholin-4-yl)ethyl]-3-(naphthalene-1-carbonyl)-1H-indole, reference compound] | 81.6 | – | – |
| COc1ccc(C(=O)c2cn(CC[N+]3(C)CCOCC3)c3ccccc23)c2ccccc12 [Compound 41, 4-{2-[3-(4-methoxynaphth-alene-1-carbonyl)-1H-indol-1-yl]ethyl}-4-methylmorpholin-4-ium iodide] | 4080 | – | – |
| COc1ccc(C(=O)c2cn(CCN3CCOCC3)c3ccccc23)c2ccccc12 [Compound 42, 3-(4-methoxynaphtha-lene-1-carbonyl)-1-[2-(morpholin-4-yl)ethyl]-1H-indole, reference compound] | 88.1 | – | – |
| Cc1ccc(C(=O)c2cn(CC[N+]3(C)CCOCC3)c3ccccc23)c2ccccc12 [Compound 43, 4-methyl-4-{2-[3-(4-methyl-naphthalene-1-carbonyl)-1H-indol-1-yl]ethyl}morpholin-4-ium iodide] | 4170 | – | – |
| Cc1ccc(C(=O)c2cn(CCN3CCOCC3)c3ccccc23)c2ccccc12 [Compound 44, 3-(4-methyl-naphthalene-1-carbonyl)-1-[2-(morpholin-4-yl)ethyl]-1H-indole, reference compound] | 20.2 | – | – |
| CCOC(=O)CCCn1cc(C(=O)c2cccc3ccccc23)c2ccccc21 [Compound 50, ethyl 4-[3-(naphthalene-1-carbonyl)-1H-indol-1-yl]butanoate] | 747 | – | – |
| CCOC(=O)CCCCn1cc(C(=O)c2cccc3ccccc23)c2ccccc21 [Compound 53, ethyl 5-[3-(naphthalene-1-carbonyl)-1H-indol-1-yl]pentanoate] | 1470 | – | – |
| CCCCCn1cc(C(=O)c2ccc(C(=O)OCC)c3ccccc23)c2ccccc21 [Compound 58, ethyl 4-(1-pentyl-1H-indole-3-carbonyl)naphth-alene-1-carboxylate] | 115 | 53.9 | – |
| CCCCCn1cc(C(=O)c2ccc(C(N)=O)c3ccccc23)c2ccccc21 [Compound 59, 4-(1-pentyl-1H-indole-3-carbonyl)naph-thalene-1-carboxamide] | 96.6 | 135 | – |
| CCCCCn1cc(C(=O)c2ccc(C(=O)NC)c3ccccc23)c2ccccc21 [Compound 60, N-methyl-4-(1-pentyl-1H-indole-3-carbonyl) naphthalene-1-carboxamide] | 127 | 303 | – |
| O=C(c1cccc2ccccc12)c1cn(CCCCCF)c2cccc(F)c12 [Compound 66, 4-fluoro-1-(5-fluoropentyl)-3-(naphthalene-1-carbonyl)-1H-indole] | 4.38 | 2.94 | – |
| O=C(c1cccc2ccccc12)c1cn(CCN2CCOCC2)c2cccc(F)c12 [Compound 68, 4-fluoro-1-[2-(morpholin-4-yl)ethyl]-3-(naphthalene-1-carbonyl)-1H-indole] | 237 | 95.2 | – |
